# In patent US8536354B2, “Steroidal ligands and their use in gene switch modulation” (Intrexon Corporation, priority 2008, dated 2013):
# Where two headings read alike, the source gives them in different places.
# Experiments:
# [1] = biological target: T1, AmaEcR (GAL4-EcR DEF with VP16-RXR-USP chimera) (Amblyomma americanum, UniProt O44338); assay: Two-hybrid gene switch assay, luciferase reporter, AmaEcR, mouse NIH3T3 cells
# T1 sequence (O44338 255-570): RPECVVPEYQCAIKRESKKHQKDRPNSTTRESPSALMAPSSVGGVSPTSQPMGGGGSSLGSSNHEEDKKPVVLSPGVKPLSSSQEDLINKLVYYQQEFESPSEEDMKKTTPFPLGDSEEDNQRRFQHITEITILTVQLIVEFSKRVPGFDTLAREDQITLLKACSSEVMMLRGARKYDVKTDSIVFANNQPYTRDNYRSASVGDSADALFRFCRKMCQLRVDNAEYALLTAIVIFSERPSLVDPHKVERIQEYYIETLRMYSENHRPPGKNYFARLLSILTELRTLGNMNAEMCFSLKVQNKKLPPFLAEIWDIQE
# T1 sequence (P28702 1-533 partner): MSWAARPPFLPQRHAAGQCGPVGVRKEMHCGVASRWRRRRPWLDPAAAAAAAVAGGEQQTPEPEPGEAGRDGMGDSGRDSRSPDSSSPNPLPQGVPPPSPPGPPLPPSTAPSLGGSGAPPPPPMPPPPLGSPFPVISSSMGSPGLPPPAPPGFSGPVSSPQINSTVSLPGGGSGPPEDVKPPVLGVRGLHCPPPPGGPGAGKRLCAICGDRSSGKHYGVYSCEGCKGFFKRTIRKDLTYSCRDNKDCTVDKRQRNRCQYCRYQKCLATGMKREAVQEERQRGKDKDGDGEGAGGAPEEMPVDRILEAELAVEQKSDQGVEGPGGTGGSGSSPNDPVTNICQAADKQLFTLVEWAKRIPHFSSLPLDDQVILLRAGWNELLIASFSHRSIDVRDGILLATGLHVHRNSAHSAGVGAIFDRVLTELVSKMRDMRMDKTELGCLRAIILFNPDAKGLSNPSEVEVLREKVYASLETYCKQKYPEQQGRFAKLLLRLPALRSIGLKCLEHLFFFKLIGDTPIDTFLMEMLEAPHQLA
# [2] = biological target: T2, MsEcR (GAL4-EcR DEF with VP16-RXR-USP chimera) (Manduca sexta, UniProt P49883); assay: Two-hybrid gene switch assay, luciferase reporter, MsEcR, mouse NIH3T3 cells
# T2 sequence (P49883 1-556): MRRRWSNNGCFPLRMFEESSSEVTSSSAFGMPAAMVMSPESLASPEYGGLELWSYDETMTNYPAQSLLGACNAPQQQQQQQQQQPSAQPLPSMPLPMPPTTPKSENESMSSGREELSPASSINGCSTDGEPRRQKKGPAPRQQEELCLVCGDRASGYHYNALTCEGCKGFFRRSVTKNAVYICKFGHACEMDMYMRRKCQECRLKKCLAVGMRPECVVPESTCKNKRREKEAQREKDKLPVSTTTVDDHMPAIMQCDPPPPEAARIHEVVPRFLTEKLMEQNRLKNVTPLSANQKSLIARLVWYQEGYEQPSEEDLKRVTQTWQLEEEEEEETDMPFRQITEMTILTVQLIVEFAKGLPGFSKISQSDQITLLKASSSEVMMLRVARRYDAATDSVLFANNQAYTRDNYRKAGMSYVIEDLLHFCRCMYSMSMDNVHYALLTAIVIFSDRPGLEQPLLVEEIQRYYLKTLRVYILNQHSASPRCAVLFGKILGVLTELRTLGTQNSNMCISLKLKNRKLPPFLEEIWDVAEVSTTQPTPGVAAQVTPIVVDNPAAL
# T2 sequence (P28702 1-533 partner): T1 sequence (P28702 1-533 partner)
# [3] = test system: NcEcR (GAL4-EcR DEF with VP16-RXR partner); assay: Two-hybrid gene switch assay, luciferase reporter, NcEcR, mouse NIH3T3 cells
# [4] = biological target: wild-type Drosophila melanogaster EcR (DmEcR; GAL4-EcR DEF with VP16-RXR-USP chimera) (Drosophila melanogaster, UniProt P34021); assay: Two-hybrid gene switch assay, luciferase reporter, wild-type DmEcR, mouse NIH3T3 cells; type: cell-based
# [5] = biological target: T3, BaEcR (GAL4-EcR DEF with VP16-RXR-USP chimera) (Bemisia tabaci, UniProt A0A6M3RDR8); assay: Two-hybrid gene switch assay, luciferase reporter, BaEcR, mouse NIH3T3 cells
# T3 sequence (A0A6M3RDR8 115-530): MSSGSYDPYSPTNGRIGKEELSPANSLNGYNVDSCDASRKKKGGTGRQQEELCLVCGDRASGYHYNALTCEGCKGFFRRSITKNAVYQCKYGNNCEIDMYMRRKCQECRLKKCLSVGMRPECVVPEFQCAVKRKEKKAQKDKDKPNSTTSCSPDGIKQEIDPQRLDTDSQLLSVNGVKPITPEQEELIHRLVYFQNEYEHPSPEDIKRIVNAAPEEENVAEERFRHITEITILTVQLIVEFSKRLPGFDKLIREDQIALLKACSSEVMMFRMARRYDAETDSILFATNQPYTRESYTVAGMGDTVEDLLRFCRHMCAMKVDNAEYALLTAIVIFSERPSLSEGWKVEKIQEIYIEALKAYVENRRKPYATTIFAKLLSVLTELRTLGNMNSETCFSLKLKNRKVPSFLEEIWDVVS
# T3 sequence (P28702 1-533 partner): T1 sequence (P28702 1-533 partner)
# [6] = biological target: wild-type Aedes aegypti EcR (AaEcR; GAL4-EcR DEF with VP16-RXR-USP chimera) (Aedes aegypti, UniProt P49880); assay: Two-hybrid gene switch assay, luciferase reporter, wild-type AaEcR, mouse NIH3T3 cells; type: cell-based
# [7] = biological target: BmEcR (GAL4-EcR DEF with VP16-RXR-USP chimera) (Bombyx mori, UniProt P49881); assay: Two-hybrid gene switch assay, luciferase reporter, BmEcR, mouse NIH3T3 cells; type: cell-based
# [8] = EC50, FIG. 14A/14B, GAL4-EcR(DEF) with VP16-RXR-USP chimera
# [9] = EC50, FIG. 13A/13B, GAL4-EcR(DEF) with VP16-RXR-USP chimera
# [10] = FIG. 14A/14B, GAL4-EcR(DEF) with VP16-RXR-USP chimera, read-out: EC50
# [11] = EC50, FIG. 13A/13B, BmEcR, GAL4-EcR(DEF) with VP16-RXR-USP chimera
# [12] = EC50, FIG. 16, GAL4-EcR (DEF) / VP16-RXR-USP chimera
# [13] = EC50, FIG. 15, GAL4-EcR (DEF) / VP16-RXR-USP chimera
# [14] = EC50, FIG. 15, BmEcR, GAL4-EcR (DEF) / VP16-RXR-USP chimera
# Chain of BmEcR (GAL4-EcR DEF with VP16-RXR-USP chimera) (P49881 other isoform, or with tags, fused parts or gaps, change not shown): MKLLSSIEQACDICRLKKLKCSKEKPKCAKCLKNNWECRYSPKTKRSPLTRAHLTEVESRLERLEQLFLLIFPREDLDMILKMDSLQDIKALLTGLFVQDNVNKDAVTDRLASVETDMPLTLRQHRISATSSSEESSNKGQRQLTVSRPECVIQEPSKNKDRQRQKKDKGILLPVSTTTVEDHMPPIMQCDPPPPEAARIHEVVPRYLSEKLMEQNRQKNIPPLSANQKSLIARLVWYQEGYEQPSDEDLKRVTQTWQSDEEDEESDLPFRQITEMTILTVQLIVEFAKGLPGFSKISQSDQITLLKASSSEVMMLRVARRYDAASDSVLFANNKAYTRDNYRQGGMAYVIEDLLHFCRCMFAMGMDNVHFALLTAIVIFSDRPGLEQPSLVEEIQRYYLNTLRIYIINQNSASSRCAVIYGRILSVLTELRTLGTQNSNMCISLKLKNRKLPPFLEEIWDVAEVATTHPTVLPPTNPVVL
# Chain of wild-type Aedes aegypti EcR (AaEcR; GAL4-EcR DEF with VP16-RXR-USP chimera) (P49880 with tags, fused parts or gaps limits assumed, change not shown): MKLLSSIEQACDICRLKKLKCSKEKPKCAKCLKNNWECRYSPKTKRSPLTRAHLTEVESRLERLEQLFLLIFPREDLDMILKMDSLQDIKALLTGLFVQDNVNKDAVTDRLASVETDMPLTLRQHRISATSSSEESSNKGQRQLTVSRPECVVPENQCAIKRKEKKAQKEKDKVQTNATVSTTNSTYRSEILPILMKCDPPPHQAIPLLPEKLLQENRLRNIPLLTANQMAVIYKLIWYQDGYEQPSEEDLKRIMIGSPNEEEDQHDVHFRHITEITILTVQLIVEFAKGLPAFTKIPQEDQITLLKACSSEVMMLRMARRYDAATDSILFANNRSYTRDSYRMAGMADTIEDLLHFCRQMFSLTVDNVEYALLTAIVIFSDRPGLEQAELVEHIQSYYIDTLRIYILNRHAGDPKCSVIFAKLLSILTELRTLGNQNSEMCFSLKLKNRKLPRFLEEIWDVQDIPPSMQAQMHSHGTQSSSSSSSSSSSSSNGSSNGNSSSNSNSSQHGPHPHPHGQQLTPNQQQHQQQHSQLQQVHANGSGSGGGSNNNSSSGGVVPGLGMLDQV
# Chain of wild-type Drosophila melanogaster EcR (DmEcR; GAL4-EcR DEF with VP16-RXR-USP chimera) (P34021 with tags, fused parts or gaps limits assumed): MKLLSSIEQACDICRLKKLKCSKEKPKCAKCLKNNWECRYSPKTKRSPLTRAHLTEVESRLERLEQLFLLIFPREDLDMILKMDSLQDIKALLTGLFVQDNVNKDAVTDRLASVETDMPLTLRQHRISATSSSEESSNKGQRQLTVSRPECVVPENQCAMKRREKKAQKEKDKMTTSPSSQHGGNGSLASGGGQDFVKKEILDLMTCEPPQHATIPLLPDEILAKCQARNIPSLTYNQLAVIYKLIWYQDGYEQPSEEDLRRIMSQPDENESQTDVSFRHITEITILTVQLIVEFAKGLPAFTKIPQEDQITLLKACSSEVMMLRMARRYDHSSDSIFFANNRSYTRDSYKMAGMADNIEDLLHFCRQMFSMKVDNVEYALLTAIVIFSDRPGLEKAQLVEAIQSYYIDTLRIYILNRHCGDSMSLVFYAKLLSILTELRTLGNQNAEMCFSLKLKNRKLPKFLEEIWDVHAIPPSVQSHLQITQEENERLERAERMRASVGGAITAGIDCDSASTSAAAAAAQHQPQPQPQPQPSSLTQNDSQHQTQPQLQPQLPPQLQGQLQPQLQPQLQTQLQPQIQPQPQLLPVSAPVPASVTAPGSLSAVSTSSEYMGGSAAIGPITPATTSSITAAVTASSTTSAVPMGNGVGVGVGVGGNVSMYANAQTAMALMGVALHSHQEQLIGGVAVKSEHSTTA
SMILES,"EC50 [1, 8] [µM]","EC50 [2, 9] [µM]","EC50 ([3]; FIG. 14A/14B, GAL4-EcR(DEF)) [µM]","EC50 [4, 8] [µM]","EC50 [5, 8] [µM]","EC50 [6, 10] [µM]","EC50 [7, 11] [µM]","EC50 [6, 8] [µM]",EC50 [7] [µM],EC50 ([7]; read-out: EC50) [µM],"EC50 [1, 12] [µM]","EC50 [2, 13] [µM]","EC50 [7, 14] [µM]","EC50 ([3]; FIG. 16, GAL4-EcR (DEF)) [µM]","EC50 [4, 12] [µM]","EC50 [6, 12] [µM]","EC50 [5, 12] [µM]"
C[C@@H]1C(=O)O[C@H](C)[C@H]1C[C@@H](O)[C@](C)(O)[C@H]1CC[C@@]2(O)C3=CC(=O)[C@@H]4C[C@@H](O)[C@@H](O)C[C@]4(C)[C@H]3CC[C@]12C [cyasterone],~0.3,1.53,1.82,> 33,~10,3,–,–,–,–,–,–,–,–,–,–,–
CC(C)CC[C@@H](O)[C@](C)(O)[C@H]1CC[C@@]2(O)C3=CC(=O)[C@@H]4C[C@@H](O)[C@@H](O)C[C@]4(C)[C@H]3[C@H](O)C[C@]12C [ajugasterone C],~0.2,~7,0.08,~2,2.06,–,~10,0.07,–,–,–,–,–,–,–,–,–
CCCCCCCCCC(=O)OC1CC2(C)C(C(C)(O)C(O)CCC(C)(C)O)CCC2(O)C2=CC(=O)C3CC(O)C(O)CC3(C)C21 (stereo not drawn) [turkesterone-11a-decanoate],> 33,> 33,> 33,> 33,> 33,–,> 33,> 33,–,–,–,–,–,–,–,–,–
CC(C)(O)CC[C@@H](O)[C@](C)(O)[C@H]1CC[C@@]2(O)C3=CC(=O)[C@@H]4C[C@@H](O)[C@@H](O)C[C@]4(C)C3=CC[C@]12C [Compound 25-hydroxydacryhainansterone],~3.3,~10,1.26,> 33,~15,~5,–,–,> 33,–,–,–,–,–,–,–,–
CC(C(O)CCC(C)(C)O)C1CCC2(O)C3=CC(=O)C4CC(O)CCC4(C)C3CCC12C (stereo not drawn) [Compound 2-deoxyecdysone],~1,> 33,~6,> 33,> 33,~10,–,–,–,> 33,–,–,–,–,–,–,–
CC(C)(O)CC[C@@H](O)[C@](C)(O)[C@H]1CC[C@@]2(O)C3=CC(=O)[C@]4(O)C[C@@H](O)[C@@H](O)C[C@]4(C)[C@H]3CC[C@]12C [polypodine B],~3.3,~2,~0.1,~2,~3.3,–,~8,0.173,–,–,~0.3,4.35,~9,0.05,2.54,0.05,–
CC(CC(O)C(C)(O)C1CCC2(O)C3=CC(=O)C4CC(O)C(O)CC4(C)C3CCC12C)C(C)(C)O (stereo not drawn) [makisterone A],1.4,~10,0.117,~20,~15,3.33,–,–,–,> 33,–,–,–,–,–,–,–
CC(C)(O)CCC(=O)[C@](C)(O)[C@H]1CC[C@@]2(O)C3=CC(=O)[C@@H]4C[C@@H](O)[C@@H](O)C[C@]4(C)[C@H]3CC[C@]12C [Compound 22-dehydro-20-hydroxyecdysone],~7,10.3,1.84,~20,~12,~2,–,–,> 33,–,–,–,–,–,–,–,–
C[C@@H](CO)CC[C@@H](O)[C@](C)(O)[C@H]1CC[C@@]2(O)C3=CC(=O)[C@@H]4C[C@@H](O)[C@@H](O)C[C@]4(C)[C@H]3CC[C@]12C [(25R)-inokosterone],~3.3,~10,0.867,9.46,~10,~2.5,–,–,–,> 33,–,–,–,–,–,–,–
CC(C)(O)CC[C@@H](OC(=O)c1ccc[nH]1)[C@](C)(O)[C@H]1CC[C@@]2(O)C3=CC(=O)[C@@H]4C[C@@H](O)[C@@H](O)C[C@]4(C)[C@H]3CC[C@]12C,~5,> 33,~5,~20,~15,~10,–,–,> 33,–,–,–,–,–,–,–,–
C[C@H](CO)CC[C@@H](O)[C@](C)(O)[C@H]1CC[C@@]2(O)C3=CC(=O)[C@@H]4C[C@@H](O)[C@@H](O)C[C@]4(C)[C@H]3CC[C@]12C [(25S)-inokosterone],~3.3,~10,~1.5,~20,~10,~4,–,–,–,> 33,–,–,–,–,–,–,–
CC(C)(O)C(CCC(C)(O)C1CCC2(O)C3=CC(=O)C4CC(O)C(O)CC4(C)C3CCC12C)OC(=O)c1ccc[nH]1 (stereo not drawn) [canescensterone],~0.3,> 10,~0.33,~0.5,~0.2,~0.2,–,–,> 10,–,–,–,–,–,–,–,–
CC1(C)OC(=O)C=C1CC(O)C(C)(O)C1CCC2(O)C3=CC(=O)C4CC(O)C(O)CC4(C)C3CCC12C (stereo not drawn) [carthamosterone],~20,> 33,~10,> 33,> 33,~15,–,–,–,> 33,–,–,–,–,–,–,–
CC(C)(O)CC[C@@H](O)[C@](C)(O)[C@H]1CC[C@@]2(O)C3=CC(=O)[C@@H]4C[C@@H](O)[C@@H](O)C[C@]4(C)[C@H]3[C@H](O)C[C@]12C [turkesterone],~10,~12,1.35,~15,~20,–,> 33,3.37,–,–,–,–,–,–,–,–,–
C[C@H]([C@H](O)CCC(C)(C)O)[C@H]1CC[C@@]2(O)C3=CC(=O)[C@@H]4C[C@@H](O)[C@@H](O)C[C@]4(C)[C@H]3CC[C@]12C [ecdysone],~7,> 33,3.27,> 33,> 33,–,> 33,~15,–,–,> 33,> 33,> 33,2.52,> 33,3.43,> 33
